Laboratory results taken from article PMC12591137, “Emodin Alleviates Sepsis‐Induced Multiorgan Damage by Inhibiting NETosis through Targeting Neutrophils BCL‐10” (Advanced Science, 2025).

What was measured:
[1] = biological target: T1, rhBCL-10 (recombinant human BCL-10) (Homo sapiens, UniProt O95999); assay: thermal shift, soluble protein by western blot; type: binding; settings: 100 µM emodin, 37-67 °C; text says recombinant BCL-10, methods describe lysate of PMA-treated HL-60 cells
T1 construct: gene BCL10; recombinant human protein, amine-coupled on sensor chip for SPR
T1 sequence (O95999 1-233): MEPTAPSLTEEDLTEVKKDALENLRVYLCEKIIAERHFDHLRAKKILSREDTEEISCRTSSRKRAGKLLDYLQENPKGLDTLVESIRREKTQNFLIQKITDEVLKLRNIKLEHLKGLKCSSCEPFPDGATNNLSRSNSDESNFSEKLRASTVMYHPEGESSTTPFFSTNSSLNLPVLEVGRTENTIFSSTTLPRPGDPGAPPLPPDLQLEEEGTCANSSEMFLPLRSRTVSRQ

Flag-BCL-10 = biological target: T2, Flag-BCL-10 (Homo sapiens, UniProt O95999); assay: competition of free emodin against pull-down by emodin-Sepharose, anti-Flag western blot; type: biochemical; settings: 100 µM free emodin; HEK293T lysate, pH 7.4, 4 °C
T2 construct: gene BCL10; Flag-tagged, overexpressed in HEK293T, cell lysate; plasmid section instead says N-terminal 'Streptococcus' tag in pCDH-EF1-MCS-T2A-Puro
T2 sequence (O95999 1-233): T1 sequence (O95999 1-233)

[2] = biological target: T1, rhBCL-10 (recombinant human BCL-10); assay: SPR (Biacore T200), global […] Langmuir kinetic fit; type: binding

## Cc1cc(O)c2c(c1)C(=O)c1cc(O)cc(O)c1C2=O [Emodin]
[1]
  thermal stabilisation: Emodin binding significantly enhances BCL-10′s thermal resistance
Flag-BCL-10
  competition of free emodin against pull-down by emodin-Sepharose, anti-Flag west: free Emodin competitively inhibited the binding of Flag-BCL-10 to Emodin-Sepharose
[2]
  Kd: 1940 nM
